pIC50: −log10 of the molar value.
Legend:
[1] = target: T1, Methionine aminopeptidase (Escherichia coli K-12, UniProt P0AE18); assay: Inhibitory concentration against EcMetAP1 enzyme activity
T1 sequence (P0AE18 whole entry): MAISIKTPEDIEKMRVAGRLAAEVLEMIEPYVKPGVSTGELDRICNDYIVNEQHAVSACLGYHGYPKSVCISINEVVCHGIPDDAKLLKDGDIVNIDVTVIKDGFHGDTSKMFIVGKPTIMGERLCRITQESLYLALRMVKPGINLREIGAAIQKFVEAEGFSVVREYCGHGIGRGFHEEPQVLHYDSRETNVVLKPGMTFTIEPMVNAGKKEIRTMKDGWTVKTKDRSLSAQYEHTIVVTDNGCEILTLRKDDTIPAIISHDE

[2] = target: T2, Methionine aminopeptidase 1 (Saccharomyces cerevisiae S288c, UniProt Q01662); assay: Inhibitory concentration against ScMetAP1 enzyme activity
T2 sequence (Q01662 whole entry): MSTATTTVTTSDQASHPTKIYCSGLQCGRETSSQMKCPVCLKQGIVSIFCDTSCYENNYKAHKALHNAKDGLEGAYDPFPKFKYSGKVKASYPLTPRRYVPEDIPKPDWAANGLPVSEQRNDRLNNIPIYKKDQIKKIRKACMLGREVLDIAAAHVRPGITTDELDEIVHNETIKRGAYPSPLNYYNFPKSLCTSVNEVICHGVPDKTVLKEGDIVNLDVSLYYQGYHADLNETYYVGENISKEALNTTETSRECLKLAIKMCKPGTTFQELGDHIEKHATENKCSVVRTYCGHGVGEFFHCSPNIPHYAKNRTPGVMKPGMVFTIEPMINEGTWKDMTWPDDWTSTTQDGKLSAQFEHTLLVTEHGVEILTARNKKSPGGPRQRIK

Compound	pIC50 [1]	pIC50 [2]
CO[C@@H](Cc1scnc1C(=O)Nc1nccs1)c1ccccc1	7.18	6.35
O=C(Nc1nccs1)c1ncsc1CN1CCOCC1	7.26	5.75
COC(C)(C)Cc1scnc1C(=O)Nc1nccs1	7.16	5.49
O=C(Nc1nccs1)c1ncsc1CN1CCCCC1	8.00	7.12
O=C(Nc1nccs1)c1ncsc1CCN1CCCCC1	7.35	6.39
O=C(OCCc1scnc1C(=O)Nc1nccs1)c1ccccc1	7.39	5.51
CC(=O)OCCc1scnc1C(=O)Nc1nccs1	6.51	4.75
Cc1ccc(S(=O)(=O)OCCc2scnc2C(=O)Nc2nccs2)cc1	5.82	5.43
O=C(Nc1nccs1)c1ncsc1CN1CCCC1	7.60	6.46
COc1ccc(C(Cc2scnc2C(=O)Nc2nccs2)OC)cc1 (centres undefined)	7.64	6.51
O=C(COCc1ccccc1)OCCc1scnc1C(=O)Nc1nccs1	6.89	6.26
CCCCC(Cc1scnc1C(=O)Nc1nccs1)OC (centres undefined)	7.00	6.35
COC(Cc1scnc1C(=O)Nc1nccs1)c1ccccc1F (centres undefined)	7.47	6.57
O=C(Nc1nccs1)c1ncsc1CCOCc1ccccc1	7.05	5.37
COC(c1ccccc1)c1scnc1C(=O)Nc1nccs1 (centres undefined)	7.21	6.12
COC(Cc1scnc1C(=O)Nc1nccs1)C1CCCCC1 (centres undefined)	7.27	6.40

Compound	pIC50 [1]	pIC50 [2]
COC(Cc1scnc1C(=O)Nc1nccs1)c1cccc(Cl)c1 (centres undefined)	7.05	6.28
CO[C@H](Cc1scnc1C(=O)Nc1nccs1)c1ccccc1	7.44	6.35
COc1ccccc1C(Cc1scnc1C(=O)Nc1nccs1)OC (centres undefined)	7.46	6.24
COc1cc(C(=O)OCCc2scnc2C(=O)Nc2nccs2)cc(OC)c1OC	6.80	5.81
COC(Cc1scnc1C(=O)Nc1nccs1)c1cccc(F)c1 (centres undefined)	7.43	6.47
O=C(Nc1nccs1)c1ncsc1CCOC(=O)C1CCCC1	6.85	6.10
CCOC(Cc1scnc1C(=O)Nc1nccs1)C(C)C (centres undefined)	7.55	6.82
COC(Cc1scnc1C(=O)Nc1nccs1)CC(C)C (centres undefined)	7.05	6.30
COCc1scnc1C(=O)Nc1nccs1	7.01	5.12
COC(Cc1scnc1C(=O)Nc1nccs1)c1ccccc1 (centres undefined)	7.37	6.36
O=C(Nc1nccs1)c1ncsc1CCO	6.33	4.98
COCCc1scnc1C(=O)Nc1nccs1	6.82	5.19
O=C(Cc1ccccc1)OCCc1scnc1C(=O)Nc1nccs1	7.48	5.22
COC(Cc1scnc1C(=O)Nc1nccs1)c1ccc(Cl)cc1 (centres undefined)	7.48	6.24
COC(Cc1scnc1C(=O)Nc1nccs1)c1ccccc1Cl (centres undefined)	6.77	6.64
COC(Cc1scnc1C(=O)Nc1nccs1)c1ccc(F)cc1 (centres undefined)	7.24	6.41

From ChEMBL document CHEMBL1142821, “Identification of potent type I MetAPs inhibitors by simple bioisosteric replacement. Part 2: SAR studies of 5-heteroalkyl substituted TCAT derivatives” (Bioorg Med Chem Lett, 2005)
